# Patent US9753018B2, “Selenium-containing compound” (Fisheries Research Agency, priority 2009, dated 2017)
# Legend:
# [1] = DPPH radical-scavenging ability (RS50); assay type: biochemical; settings: for EC50: concentration at which DPPH radical-scavenging rate was 50%, room temperature 30 minutes, absorbance 595 nm
# Description: In order to evaluate the chemical antioxidant ability of the selenium-containing compound (chemical formula 4: oxidized dimer) according to one embodiment of the invention, the 1,1-diphenyl-2-picrylhydrazyl (DPPH) radical-scavenging ability was measured (Hideo Kimura, Kota Naganuma, Masato Kojima, Masakazu Komatsu, Takumi Onda, and Masao Tsuji, Yamanashi Prefectural Industrial Technology Center Report, No. 22, pp. 59-63 (2008)).
# Specifically, a selenium-containing compound (selenium content: 1.62 μM) derived from the meat of Xiphias gladius, a 10 mM aqueous solution of a water-soluble vitamin E derivative (commercially available antioxidant) (Trolox (registered trademark) (CAS No.: 56305-04-5, manufactured by Roche)), and a 4.36 mM aqueous solution of (+)-ergothioneine (CAS No.: 497-30-3, manufactured by SIGMA) were repeatedly 2-fold diluted with purified water to prepare 2 to 128-fold diluted test solutions.
# 10 μl of the test solution and 100 μl of a DPPH solution (0.35 mM, prepared by dissolving 1.38 mg of DPPH in 5 ml of ethanol, and adding 5 ml of a 0.1 M phosphate buffer (pH: 6.8) to the solution) were mixed on a 96-well micro test plate (BD Falcon (registered trademark), #1722, manufactured by Becton, and Dickinson and Company), and reacted at room temperature for 30 minutes in a dark place. The absorbance at 595 nm was then measured. A case of using purified water (absorbance: 0.59) as the test solution was determined that the DPPH radical-scavenging rate was 0%, and a case of using 10 mM Trolox (registered trademark) (absorbance: 0.19) as the test solution was determined that the DPPH radical-scavenging rate was 100%. The concentration at which the DPPH radical-scavenging rate was 50% was determined to be the RS50 of each substance, and taken as the antioxidant ability.
# [2] = system: human vessel endothelial cells (human umbilical cord vein HUV-EC-C); test: MTT assay of human vessel endothelial cells cultured with selenium compounds; assay type: cell-based
# Description: In order to clarify the intracellular function of the selenium-containing compound (chemical formula 4: oxidized dimer) according to one embodiment of the invention, the selenium-containing compound (chemical formula 4: oxidized dimer) according to one embodiment of the invention was administered to human vessel endothelial cells (human umbilical cord vein HUV-EC-C, Health Science Research Resources Bank (http://www.jhsf.or.jp)).
# Specifically, human vessel endothelial cells (10,000 cells/ml) were cultured on a 48-well plate using an MCDB131 medium (manufactured by Invitrogen) containing 10% fetal bovine serum. […] The passage number was set to 5 or less in order to maintain the properties of the human vessel endothelial cells.
# The mitochondrial respiratory chain activity was determined using an MTT assay kit (manufactured by Nacalai Tesque, Inc.). Specifically, after culturing the human vessel endothelial cells, an MTT solution was added to the culture solution in an amount 1/10th of that of the culture solution, and the cells were cultured at 37° C. for 3 hours under 5% carbon dioxide. An equal amount of isopropanol was then added to the culture solution to extract a formazan dye, and the absorbance at 595 nm was determined.
# [3] = system: human vessel endothelial cells; test: Cell proliferation rate (MTT) under hydrogen peroxide oxidative stress; assay type: cell-based; settings: 5 mM, 1 hour pre-culture, then hydrogen peroxide 25 or 50 μM, 24 hours
# Description: The in vivo antioxidant effect of the selenium-containing compound (chemical formula 4: oxidized dimer) according to one embodiment of the invention was determined using human vessel endothelial cells. Specifically, human vessel endothelial cells (10,000 cells/ml) were cultured on a 48-well plate using an MCDB131 medium containing 10% fetal bovine serum. The selenium-containing compound was added to the culture solution so that the final concentration was 5 mM (control: the selenium-containing compound was not added), and the cells were cultured at 37° C. for 1 hour under 5% carbon dioxide. After the addition of hydrogen peroxide to a final concentration of 25 or 50 μM, the cells were cultured at 37° C. for 24 hours under 5% carbon dioxide. The cell proliferation rate was then determined by the MTT assay. […] Specifically, it was confirmed that the selenium-containing compound (chemical formula 4: oxidized dimer) according to one embodiment of the invention has an in vivo antioxidant effect.
# [4] = system: animal cells (ZE, YT, RTG-2, HUV-EC-C, AT2KY, TIG-S3, HEK293 cells); test: Cell proliferation-promoting effect on cultured cells (cell count by trypan blue staining); assay type: cell-based; settings: 0-100 nM, 0-5 days, fish and human cell lines
# Description: Specifically, Danio rerio embryo ZE cells (National Research Institute of Fisheries Science), Seriola quinqueradiata tail fin YT cells (National Research Institute of Fisheries Science), and Oncorhynchus mykiss gonad RTG-2 cells (ATCCCCL55) were cultured in an L-15 medium containing 2% fetal bovine serum (30,000 cells/ml).
# Human vessel endothelial cells (human umbilical cord vein HUV-EC-C, Health Science Research Resources Bank (http://www.jhsf.or.jp)) were cultured in an MCDB131 medium containing 10% fetal bovine serum (10,000 cells/ml).
# (§1) AT cells derived from the skin of a human patient with ataxia telangiectasia syndrome (AT2KY, Health Science Research Resources Bank, JCRB0316), human skin TIG-S3 cells (Health Science Research Resources Bank, JCRB0544), and human kidney HEK293 cells (Health Science Research Resources Bank, JCRB9068) were cultured in a DMEM medium containing 10% fetal bovine serum (15,000 cells/ml).
# The selenium-containing compound was added to each culture medium (containing 2% serum) so that the final concentration was 0, 5, 10, 25, 50, or 100 nM. […] The cell count was determined by trypan blue staining after culturing the cells for 0, 1, 2, 3, 4, and 5 days.
# [5] = system: AT cells derived from the skin of a human patient with ataxia telangiectasia syndrome (AT2KY); test: Cell proliferation-promoting effect on AT cells (cell count by trypan blue staining); assay type: cell-based; settings: 0-100 nM, 37° C., 0-5 days
# Description: as §1
# The selenium-containing compound was added to each culture medium (containing 2% serum) so that the final concentration was 0, 5, 10, 25, 50, or 100 nM. The Danio rerio embryo ZE cells were cultured at 25° C., the Seriola quinqueradiata tail fin YT cells were cultured at 20° C., and Oncorhynchus mykiss gonad RTG-2 cells were cultured at 15° C., and the human vessel endothelial cells, the AT cells derived from the skin of a human patient with ataxia telangiectasia syndrome, the human skin TIG-S3 cells, and the human kidney HEK293 cells were cultured at 37° C. The cell count was determined by trypan blue staining after culturing the cells for 0, 1, 2, 3, 4, and 5 days. […]
# [6] = system: hemoglobin of rabbit red cells; test: Metmyoglobin formation inhibitory effect (hemoglobin collected from red cells); assay type: cell-based; settings: 10, 25 or 50 nM in medium; hemoglobin solution incubated 37° C. 3 hours; versus control
# Description: (§2) Preserved rabbit blood (Nippon Biotest Laboratories Inc.) was washed three times with a physiological saline solution (centrifuged at 2000 rpm and 4° C. for 5 min) to collect red cells. The red cells were suspended in a 4-fold amount of an RPMI medium (GIBCO (registered trademark) RPMI Medium 1640 manufactured by Invitrogen Co.), and cultured at 37° C. for 1 day using a carbon dioxide incubator. The selenium-containing compound was added to the culture solution so that the final concentration of the selenium-containing compound in the medium was 10, 25, or 50 nM (control: the selenium-containing compound was not added), and the cells were cultured. The red cells were then collected by centrifugation (2000×g, 4° C., 5 min), washed three times with a phosphate buffered saline (PBS), and collected by centrifugation. The red cells were hemolyzed by adding a 10 mM sodium phosphate buffer (pH: 7.2) to the red cell pellets, and centrifuged (15,000×g, 4° C., 10 min). The supernatant hemoglobin solution was then collected. The hemoglobin solution was diluted with a 100-fold amount of a 50 mM sodium phosphate buffer (pH: 6.8), and incubated at 37° C. for 3 hours. The absorbance ratio at 405 nm and 430 nm before and after incubation was measured, and the rate of metmyoglobin formation of the hemoglobin was calculated.
# [7] = system: rabbit red cells; test: Active oxygen level in red cells (hydroxyphenyl fluorescein); assay type: cell-based; settings: HPF fluorescence; versus control
# Description: as §2, with “The red cells were hemolyzed by adding a 10 mM sodium phosphate buffer (pH: 7.2) to the red cell pellets, and centrifuged (15,000×g, 4° C., 10 min). The supernatant hemoglobin solution was then collected. The hemoglobin solution was diluted with a 100-fold amount of a 50 mM sodium phosphate buffer (pH: 6.8), and incubated at 37° C. for 3 hours.” left out
# The active oxygen level in the red cells was also measured using hydroxyphenyl fluorescein (HPF) (manufactured by Sekisui Medical Co., Ltd.). […] The fluorescence intensity (excitation wavelength: 490 nm, fluorescence wavelength: 515 nm) due to the reaction product with active oxygen was measured, and used as an index of the active oxygen level.
# [8] = Solubility (physico-chemical properties); assay type: physicochemical; settings: solvents as named in the value
# [9] = system: heme protein (myoglobin, hemoglobin); test: Heme iron binding effect (Se/Fe determination in heme proteins); parameters: species or system Thunnus orientalis, rabbit, Physeter macrocephalus; settings: Se/Fe molar ratio of purified myoglobin and hemoglobin 0.003, 0.0003, 0.001
# Description: Since it was confirmed that the selenium-containing compound has a heme protein auto-oxidation inhibitory effect (see “5. Metmyoglobin formation inhibitory effect of selenium-containing compound”), the binding capability of the selenium-containing compound with heme proteins was determined. Physeter macrocephalus (sperm whale) myoglobin available from SIGMA was used. 100 g of the dark muscle of Thunnus orientalis was mixed with a 5-fold amount of cold water, ground using a POLYTRON™ homogenizer, and centrifuged (6000×g, 10 min). The supernatant liquid was collected, and passed through a Sephacryl-100 column (16 mm×60 cm, manufactured by Pharmacia) that was equilibrated with a 0.05 M Tris-HCl buffer (pH: 7) containing 0.1 M salt to purify myoglobin derived from the dark muscle of Thunnus orientalis. […]
# The selenium content in the Physeter macrocephalus myoglobin, the Thunnus orientalis myoglobin, the rabbit hemoglobin, and the Thunnus orientalis hemoglobin was measured. Selenium was detected from each sample. The elements contained in the Physeter macrocephalus myoglobin were measured by HPLC-ICP-MS.
# The sample was wet-decomposed using nitric acid and hydrogen peroxide. Iron was quantitatively determined using an inductively coupled plasma atomic emission spectrometer (ICP-AES) (“ICPE-9000” manufactured by Shimadzu Corporation), and selenium was quantitatively determined by fluorometry. […]
compound,measurement,setting,value
"C[N+](C)(C)[C@@H](Cc1c[nH]c(=S)[nH]1)C(=O)[O-] [L-(+)-ergothioneine, reference compound]",EC50,[1],1700 µM
"Cc1c(C)c2c(c(C)c1O)CCC(C)(C(=O)O)O2 (stereo not shown) [Trolox, 6-hydroxy-2,5,7,8-tetrametylchroman-2-carboxylic acid, reference compound]",EC50,[1],880 µM
"C[N+](C)(C)C(Cc1cnc([Se][Se]c2ncc(CC(C(=O)[O-])[N+](C)(C)C)[nH]2)[nH]1)C(=O)[O-] (stereo not shown) [chemical formula 4, 3,3′-(2,2′-diselanediylbis(1H-imidazole-5,2-diyl))bis(2-(trimethylammonio)propanoate)]","concentration giving radical-scavenging ability equal to L-(+)-ergothioneine, as fraction of ergothioneine concentration","[1]; DPPH, relative to L-(+)-ergothioneine",1/907
same,"concentration giving radical-scavenging ability equal to Trolox, as fraction of Trolox concentration","[1]; DPPH, relative to water-soluble vitamin E derivative (Trolox)",1/456
same,radical-scavenging ability higher than Trolox by a factor,"[1]; chemical test, relative to Trolox",about 500
same,EC50,[1],1.9 µM
same,effect on cell proliferation (MTT),"[2]; 5 mM, 24 hours, 37° C.",cell proliferation-promoting effect
same,cytotoxicity compared with known selenium-containing compounds,"[2]; versus selenious acid, selenocystine, selenomethionine",very low cytotoxicity
same,cellular proliferative potential under oxidative stress,[3],improved
same,cell proliferation (cell count),[4],significantly promotes proliferation of animal cells
same,proliferation of AT cells,[5],effect of promoting proliferation of the AT cells
same,rate of metmyoglobin formation of hemoglobin,[6],lower than that of the control
same,active oxygen level in the red cells,[7],lower than that of the control
same,Solubility,[8]; in acetone and acetonitrile,scarcely soluble in acetone and acetonitrile
same,Solubility,"[8]; in water, ethanol and methanol","Soluble in water, ethanol, and methanol;"
same,binding to heme protein,[9],bound to a heme protein
N[C@@H](C[Se][Se]C[C@H](N)C(=O)O)C(=O)O [selenocystine],effect on cell proliferation (MTT),[2]; 5 nM added to culture medium,cell death occurred
C[Se]CC[C@H](N)C(=O)O [selenomethionine],effect on cell proliferation (MTT),[2]; 5 nM added to culture medium,cell death occurred
O=[Se](O)O [sodium selenite],effect on cell proliferation (MTT),[2]; 5 nM added to culture medium,cell death occurred
